# Measured values as given in paper PMC8097418, “In Vitro and In Vivo Antibacterial Activities of a Novel Quinolone Compound, OPS-2071, against Clostridioides difficile” (Antimicrobial Agents and Chemotherapy, 2021).
# Key:
# [1] = tested on: C. difficile ATCC 43255; assay: In vivo hamster model of C. difficile infection; design: species or system golden Syrian hamsters
# Method: C. difficile ATCC 43255 was cultured on GAM agar, and a bacterial suspension was prepared in saline ([26]). […] Hamsters were infected using oral gavage with 0.5 ml of suspension containing approximately 10^6 CFU of C. difficile (day −1). The next day, the animals were administered clindamycin phosphate (0.2 mg/ml in water) by oral gavage at a dose of 5 ml/kg of body weight, for a final dose of 1 mg/kg (day 0). The animals were allocated to the test groups using a stratified randomization method based on the body weight of each infected animal. The test compounds were administered by oral gavage once daily for 5 days (OPS-2071, 0.008 to 1 mg/kg; fidaxomicin, 0.04 mg/kg to 5 mg/kg; vancomycin, 0.04 to 5 mg/kg [5-fold dilution]). Infected control animals were administered 5% (wt/vol) gum arabic solution by oral gavage. […] The cecal contents of dead animals were tested for toxin A and toxin B using C.Diff Quik Chek Complete (Abbott Diagnostics Medical Co., Ltd., Tokyo, Japan) to confirm that the death of the animal was due to CDI.
# The statistical significance of OPS-2071, fidaxomicin, and vancomycin treatment was analyzed at all doses against vehicle. Survival curves were estimated for each group using the Kaplan-Meier method. Differences in survival homogeneity in each group were evaluated with a log-rank test with Dunnett-type (two-sided) comparison.
# [2] = Pharmacokinetics in the hamster (cecal contents); assay type: in vivo, male Syrian hamsters; conditions: male, Syrian, 2 mg/kg oral
# Method: OPS-2071 was orally administered at 2 mg/kg to male Syrian hamsters, and the cecal contents were collected 0.5, 1, 2, 4, 8, 24, 48, and 72 h postdose (n = 5 for each time point). After homogenizing with saline and treatment using acetonitrile-formic acid (100:1 [vol/vol]), the OPS-2071 concentration in cecal contents was determined using a validated liquid chromatography-electrospray ionization-tandem mass spectrometry (LC-ESI-MS/MS) method. The mass spectrometer 4000 QTRAP (AB Sciex Pte. Ltd.) and high-performance liquid chromatography Prominence UFLC system (Shimadzu Corp.) were used. The pharmacokinetic (PK) parameters (Cmax) were determined with WinNonlin professional software version 6.3, (Pharsight Corp.).
# [3] = target: DNA gyrase of C. difficile (Clostridioides difficile, UniProt Q18C89+Q18C90); assay: biochemical
# Chain of DNA gyrase of C. difficile (Q18C90 entry or part of it): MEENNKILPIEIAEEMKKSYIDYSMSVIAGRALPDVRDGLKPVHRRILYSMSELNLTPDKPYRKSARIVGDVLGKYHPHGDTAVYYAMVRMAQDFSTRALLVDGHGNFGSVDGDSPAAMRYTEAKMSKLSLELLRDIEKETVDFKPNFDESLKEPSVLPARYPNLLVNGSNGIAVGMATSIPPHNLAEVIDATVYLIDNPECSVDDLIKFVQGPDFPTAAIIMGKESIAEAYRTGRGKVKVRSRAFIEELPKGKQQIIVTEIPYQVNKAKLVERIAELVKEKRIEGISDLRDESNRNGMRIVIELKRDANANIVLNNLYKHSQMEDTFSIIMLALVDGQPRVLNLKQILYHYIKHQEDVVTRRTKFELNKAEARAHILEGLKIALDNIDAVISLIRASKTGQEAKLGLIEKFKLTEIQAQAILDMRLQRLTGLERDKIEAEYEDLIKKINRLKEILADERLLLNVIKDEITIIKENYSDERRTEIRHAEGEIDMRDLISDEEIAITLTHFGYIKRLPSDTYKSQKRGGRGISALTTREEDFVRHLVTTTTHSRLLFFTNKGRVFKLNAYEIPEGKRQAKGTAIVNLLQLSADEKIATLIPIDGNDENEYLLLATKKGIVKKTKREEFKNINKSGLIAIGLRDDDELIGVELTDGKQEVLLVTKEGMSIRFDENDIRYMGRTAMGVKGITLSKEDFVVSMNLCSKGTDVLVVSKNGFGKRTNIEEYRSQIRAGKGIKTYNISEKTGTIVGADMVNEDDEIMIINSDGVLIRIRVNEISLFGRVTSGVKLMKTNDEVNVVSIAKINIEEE
# Chain of DNA gyrase of C. difficile (Q18C89 entry or part of it): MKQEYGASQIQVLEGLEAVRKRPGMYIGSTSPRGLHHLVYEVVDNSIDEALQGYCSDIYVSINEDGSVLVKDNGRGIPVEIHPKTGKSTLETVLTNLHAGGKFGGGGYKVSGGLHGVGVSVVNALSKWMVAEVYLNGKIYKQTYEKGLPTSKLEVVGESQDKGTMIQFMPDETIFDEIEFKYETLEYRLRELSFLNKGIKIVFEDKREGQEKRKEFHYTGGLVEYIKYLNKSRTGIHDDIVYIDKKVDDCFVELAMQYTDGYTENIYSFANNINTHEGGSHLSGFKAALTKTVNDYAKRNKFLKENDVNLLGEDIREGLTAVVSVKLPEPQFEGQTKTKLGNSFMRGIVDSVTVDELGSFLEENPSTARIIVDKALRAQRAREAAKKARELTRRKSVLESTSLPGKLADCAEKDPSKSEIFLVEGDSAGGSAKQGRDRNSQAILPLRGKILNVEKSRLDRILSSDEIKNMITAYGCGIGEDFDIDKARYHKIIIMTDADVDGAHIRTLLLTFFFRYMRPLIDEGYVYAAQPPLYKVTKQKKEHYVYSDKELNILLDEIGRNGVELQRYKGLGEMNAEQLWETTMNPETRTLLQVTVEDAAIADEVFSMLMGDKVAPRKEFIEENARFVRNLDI
# [4] = tested on: C. difficile ATCC 700057; assay: Mutant prevention concentration; assay type: cell-based, Clostridioides difficile
# Method: The mutant prevention concentration was measured by plating approximately 10^10 CFU of C. difficile ATCC 700057 onto a GAM agar plate containing the test agent. Inoculated plates were incubated for 3 days, and the MIC for each antibiotic that prevented the growth of colonies was determined using the agar dilution method as described by the CLSI ([41]). The MIC values of grown colonies were compared to determine which bacteria were resistant. The MPC was defined as the lowest concentration that prevented the growth of resistant bacteria.
# [5] = tested on: C. difficile ATCC 700057; assay: MIC by broth dilution (GAM broth); assay type: cell-based, Clostridioides difficile; conditions: Clostridioides difficile, read-out: MIC
# Method: (§1) MICs obtained using the agar dilution method were determined visually as described for the CLSI method ([41], [42]). MICs obtained using the broth dilution method were determined visually based on the CLSI method except for using Gifu anaerobic medium (GAM) broth instead of supplemented Brucella broth ([41], [42]).
# [6] = Pharmacokinetics in the rat (plasma, oral and intravenous); assay type: in vivo, male SD rats
# Method: OPS-2071 was orally or intravenously administered at 1 mg/kg to male SD rats, and plasma was collected 0.5, 1, 2, 4, 6, 8, 12, 24, 48, and 72 h postdose (oral, n = 3 for each time point) or 0.083, 0.25, 0.5, 1, 2, 4, 6, 8, 12, 24, 48, and 72 h postdose (intravenous, n = 3 for each time point). After solid-phase extraction, the OPS-2071 concentration in plasma was determined by a validated LC-ESI-MS/MS method, and bioavailability was calculated. The mass spectrometer QTRAP 5500 (AB Sciex Pte. Ltd.) and high-performance liquid chromatography Prominence UFLCXR system (Shimadzu Corp.) were used. The PK parameters (AUCt) were determined with the same WinNonlin professional software, and the bioavailability was calculated from AUCt,oral and AUCt,intravenous.
# [7] = tested on: C. difficile ATCC 700057; assay: Postantibiotic effect (PAE); assay type: cell-based, Clostridioides difficile; conditions: for Postantibiotic effect: 1 h exposure
# Method: C. difficile ATCC 700057 was cultured in GAM agar and adjusted in GAM broth to approximately 10^6 CFU/ml. The bacterial suspensions were preincubated at 37°C for 1 h. […] After preincubation, test and reference solutions were added to each bacterial suspension in a test tube, and the suspensions were cultured for 1 h. After exposure to the test compounds, bacterial suspensions were washed with GAM broth and cultured for 6 h. […] The PAE was defined according to Craig and Gudmundsson as PAE = T − C, where T is the time required for the viable counts of the exposed bacteria to increase by 1 log10 above the counts observed immediately after washing, and C is the corresponding time for the antibiotic unexposed controls ([44]).
# [8] = tested on: C. difficile ATCC 700057; assay: Effect of pH on MIC (agar dilution); assay type: cell-based, Clostridioides difficile; conditions: for MIC: Clostridioides difficile
# [9] = in vitro; conditions: mouse
# [10] = tested on: hypervirulent and nonhypervirulent strains of C. difficile (62 strains); assay: MIC distribution against 20 hypervirulent and 42 nonhypervirulent strains; assay type: cell-based, Clostridioides difficile; conditions: for MIC50 / MIC90: Clostridioides difficile
# [11] = tested on: C. difficile ATCC 700057; assay: MIC by agar dilution (CLSI) against quality control strain; assay type: cell-based, Clostridioides difficile; conditions: Clostridioides difficile, read-out: MIC
# Method: as §1
# [12] = nonhypervirulent strains (n = 42)
structure (smiles),measurement,setting,value
"Cc1c(-c2cnc(N)c(C#N)c2)c(F)cc2c(=O)c(C(=O)O)cn(C3CC3)c12 [OPS-2071, 7-(6-amino-5-cyanopyridin-3-yl)-1-cyclopropyl-6-fluoro-8-methyl-4-oxo-1,4-dihydroquinoline-3-carboxylic acid]",ED50 fold lower than that of fidaxomicin,"[1]; hamster, in vivo",52.1 fold
same,ED50 fold lower than that of vancomycin,"[1]; hamster, in vivo",39.0 fold
same,50% effective dose (ED50),"[1]; survival on day 20, oral once daily for 5 days, probit method",0.0313 mg/kg/day
same,dosages with significant efficacy compared with vehicle control,"[1]; survival, log-rank test",≥ 0.04 mg/kg
same,concentration at 24 h,"[2]; 24 h, read-out: concentration in the cecal contents at 24 h postdose",1840 ng/g
same,Cmax,"[2]; reached at 4 h postdose, read-out: maximum concentration (Cmax) in the cecal contents",43000 ng/g
same,IC50,[3],608 nM
same,MPC fold lower than those of fidaxomicin and vancomycin,[4],16 fold
same,mutant prevention concentration (MPC),"[4]; approximately 10^10 CFU, 3 days",0.5 µg/mL
same,MIC,"[5]; ATCC700057, broth dilution, retested for the time-kill assay",0.03 µg/mL
same,MIC,"[5]; ATCC700057, broth method, determined for the PAE assay",0.06 µg/mL
same,plasma concentrations at 48 and 72 h after administration,[6]; 1 mg/kg oral or intravenous,< 0.5 ng/mL
same,bioavailability,"[6]; male, SD, rat, plasma, 1 mg/kg, from AUCt oral and intravenous",2.9%
same,AUC(0-t),"[6]; male, SD, rat, intravenous, 1 mg/kg, plasma",672 ng·h/mL
same,AUC(0-t),"[6]; male, SD, rat, oral, 1 mg/kg, plasma",19.5 ng·h/mL
same,PAEs at 4- and 8-fold the MIC,[7]; 4- and 8-fold the MIC,3.93 to 4.04 h
same,Postantibiotic effect,[7]; 4× MIC,3.93 h
same,Postantibiotic effect,[7]; 8× MIC,4.04 h
same,MIC,"[8]; ATCC700057, pH 6",0.016 µg/mL
same,MIC,"[8]; ATCC700057, pH 7",0.016 µg/mL
same,MIC,"[8]; ATCC700057, pH 8",0.03 µg/mL
same,influence of pH on MICs,[8]; pH 6 to 8,not influenced by pH
same,IC50 at 110 min,[9],> 100 µg/mL
same,MIC50,[10]; hypervirulent strains (n = 20),0.03 µg/mL
same,MIC90,[10]; hypervirulent strains (n = 20),0.25 µg/mL
same,MIC50,[10]; [12],0.03 µg/mL
same,MIC90,[10]; [12],0.125 µg/mL
same,Cumulative percentage of strains,"[10]; Hyp (n = 20), MIC 0.063 μg/ml",75%
same,Cumulative percentage of strains,"[10]; Hyp (n = 20), MIC 0.25 μg/ml",100%
same,Cumulative percentage of strains,"[10]; Non-hyp (n = 42), MIC 0.063 μg/ml",88%
same,Cumulative percentage of strains,"[10]; Non-hyp (n = 42), MIC 0.25 μg/ml",100%
same,MIC range,[10]; hypervirulent strains (n = 20),0.03 to 0.25 µg/mL
same,MIC range,[10]; [12],0.03 to 0.25 µg/mL
same,MIC,"[11]; ATCC700057, agar dilution, determined for the spontaneous resistance assay",0.03 µg/mL
same,MIC,"[11]; ATCC700057, quality control strain ATCC 700057, CLSI method",0.031 µg/mL
